Experimental data reported in patent US12600725B2 (Memorial Sloan-Kettering Cancer Center, priority 2013, dated 2026).

Assays:
[1] = molecular target: Grp94 (Canis lupus familiaris, UniProt P41148); settings: read-out: Grp94; FP competition, 6 nM Cy3B-GM, 10 nM protein, 4° C. for 24 h
[2] = molecular target: Hsp90α (Homo sapiens, UniProt P07900); assay: biochemical; settings: FP competition, 6 nM Cy3B-GM, 10 nM protein, 4° C. for 24 h

Chain of Grp94 (P41148 with tags, fused parts or gaps DELINS287-327GGGG): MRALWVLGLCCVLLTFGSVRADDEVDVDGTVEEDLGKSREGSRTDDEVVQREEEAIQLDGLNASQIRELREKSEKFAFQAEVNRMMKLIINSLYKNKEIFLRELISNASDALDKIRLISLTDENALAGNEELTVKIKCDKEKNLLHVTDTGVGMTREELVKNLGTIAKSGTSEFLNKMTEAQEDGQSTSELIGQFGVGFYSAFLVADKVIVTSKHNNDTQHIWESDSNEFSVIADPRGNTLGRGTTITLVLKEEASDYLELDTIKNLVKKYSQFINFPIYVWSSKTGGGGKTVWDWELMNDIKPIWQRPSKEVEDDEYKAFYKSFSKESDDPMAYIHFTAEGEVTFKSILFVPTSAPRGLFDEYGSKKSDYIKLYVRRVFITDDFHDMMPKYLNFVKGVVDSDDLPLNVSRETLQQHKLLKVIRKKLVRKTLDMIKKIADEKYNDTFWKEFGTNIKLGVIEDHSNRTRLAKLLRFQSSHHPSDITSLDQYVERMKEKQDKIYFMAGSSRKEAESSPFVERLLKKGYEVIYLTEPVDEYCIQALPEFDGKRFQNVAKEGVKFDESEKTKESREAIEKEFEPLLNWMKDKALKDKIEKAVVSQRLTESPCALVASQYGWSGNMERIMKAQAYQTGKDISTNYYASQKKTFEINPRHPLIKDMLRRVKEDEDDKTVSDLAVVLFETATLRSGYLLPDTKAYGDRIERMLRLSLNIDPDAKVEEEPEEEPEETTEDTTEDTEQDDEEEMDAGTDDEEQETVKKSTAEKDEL

`C#CCCCn1c(Cc2c(C)cc(C)cc2C)nc2c(N)ncnc21` [HJP-V-36, 9-(Pent-4-yn-1-yl)-8-(2,4,6-trimethylbenzyl)-9H-purin-6-amine] was tested, and the IC50 [1] was over 5000 nM and the IC50 [2] was over 10 µM.
`Nc1ncnc2c1nc(Sc1ccc(Cl)cc1Cl)n2CCc1ccncc1` [HJP-V-118, 8-((2,4-Dichlorophenyl)thio)-9-(2-(pyridin-4-yl)ethyl)-9H-purin-6-amine] showed an IC50 [1] of 1030 nM and an IC50 [2] of over 50 µM.
Compound `CC(C)NCCCn1c(Sc2cc(Cl)cc(-c3cn[nH]c3)c2)nc2c(N)ncnc21` [HJP-VI-46, 8-((3-chloro-5-(1H-pyrazol-4-yl)phenyl)thio)-9-(3-(isopropylamino)propyl)-9H-purin-6-amine] has an IC50 [1] of 1900 nM and an IC50 [2] of 15.9 µM.
Compound `C#CCCCn1c(Sc2cc(Br)cc3ccn(Cc4ccc(OC)cc4)c23)nc2c(N)ncnc21` [PDP-I-55-N9] has an IC50 [1] of over 5000 nM and an IC50 [2] of over 50 µM.
For `C#CCCCn1c([S+]([O-])c2ccc(Cl)cc2Cl)nc2c(N)ncnc21` (stereo not shown) [HJP-V-62M, 8-((2,4-Dichlorophenyl)sulfinyl)-9-(pent-4-yn-1-yl)-9H-purin-6-amine], the IC50 [1] was 5400 nM and the IC50 [2] was 24.1 µM.
For `CC(C)NCCCn1c(Sc2cc(Cl)cc(-c3cccc(C(F)(F)F)c3)c2)nc2c(N)ncnc21` [HJP-VI-9, 8-((5-chloro-3′-(trifluoromethyl)-[1,1′-biphenyl]-3-yl)thio)-9-(3-(isopropylamino)propyl)-9H-purin-6-amine], the IC50 [1] was 260 nM and the IC50 [2] was 13.8 µM.
For `CC(C)=C(C)c1cc(Cl)cc(Sc2nc3c(N)ncnc3n2CCCNC(C)C)c1` [HJP-VI-14, 8-((3-chloro-5-(3-methylbut-2-en-2-yl)phenyl)thio)-9-(3-(isopropylamino)propyl)-9H-purin-6-amine], the IC50 [1] was 160 nM and the IC50 [2] was over 50 µM.
With `CC(CO)NCCn1c(Sc2ccc(Cl)cc2Cl)nc2c(N)ncnc21` (stereo not shown) [HJP-V-86, 2-((2-(6-Amino-8-((2,4-dichlorophenyl)thio)-9H-purin-9-yl)ethyl)amino)propan-1-ol] the IC50 [1] was 210 nM and the IC50 [2] was 7.6 µM.
`C#CCCCn1cnc(N)c2nc(Sc3ccc(Cl)c4ccccc34)nc1-2` [PDP-I-77-N3] showed an IC50 [1] of over 5000 nM and an IC50 [2] of over 50 µM.
Compound `Nc1ncnc2c1nc(Sc1cc(Cl)cc(I)c1)n2CCc1cccnc1` [HJP-V-147, 8-((3-chloro-5-iodophenyl)thio)-9-(2-(pyridin-3-yl)ethyl)-9H-purin-6-amine] has an IC50 [1] of 860 nM and an IC50 [2] of 72.5 µM.
With `COc1ccc(-c2cc(Cl)cc(Sc3nc4c(N)ncnc4n3CCCNC(C)C)c2)cc1` [HJP-VI-3, 8-((5-chloro-4′-methoxy-[1,1′-biphenyl]-3-yl)thio)-9-(3-(isopropylamino)propyl)-9H-purin-6-amine] the IC50 [1] was 2700 nM and the IC50 [2] was over 25 µM.
`C#CCCCn1c(Sc2cn(Cc3ccc(OC)cc3)c3ncc(Br)cc23)nc2c(N)ncnc21` [PDP-I-58-N9] gave an IC50 [1] of over 10000 nM and an IC50 [2] of over 50 µM.
`CC(C)NCCCn1c(Sc2cc(Cl)cc(Cl)c2)nc2c(N)nccc21` [SO-III-154, 2-((3,5-dichlorophenyl)thio)-1-(3-(isopropylamino)propyl)-1H-imidazo[4,5-c]pyridin-4-amine] showed an IC50 [1] of 2590 nM and an IC50 [2] of over 50 µM.
Compound `CC(O)CNCCCn1c(Sc2cc(Cl)cc(Cl)c2)nc2c(N)ncnc21` (stereo not shown) [HJP-V-130, 1-((3-(6-amino-8-((3,5-dichlorophenyl)thio)-9H-purin-9-yl)propyl)amino)propan-2-ol] has an IC50 [1] of 370 nM and an IC50 [2] of 51.7 µM.
Compound `C#CCCCn1c(Sc2ccc(C#N)c(C(F)(F)F)c2)nc2c(N)ncnc21` [HJP-III-29, 4-((6-Amino-9-(pent-4-yn-1-yl)-9H-purin-8-yl)thio)-2-(trifluoromethyl)benzonitrile] has an IC50 [1] of 2410 nM and an IC50 [2] of 4.51 µM.
Compound `C#CCCCn1cnc(N)c2nc(Sc3cc(Cl)cc4c(Cl)ccnc34)nc1-2` [PDP-I-79-N3] has an IC50 [1] of over 5000 nM and an IC50 [2] of over 50 µM.
`Nc1ncnc2c1nc(Sc1cc(Cl)cc(Cl)c1)n2CCc1cccnc1` [HJP-V-140, 8-((3,5-dichlorophenyl)thio)-9-(2-(pyridin-3-yl)ethyl)-9H-purin-6-amine] gave an IC50 [1] of 7900 nM and an IC50 [2] of over 50 µM.
